Assays:
Type in all cases: in vivo
[1] = tested on: corn plants, 111 day, central corn belt variety; assay: Corn plant chilling (growth rate); conditions: for Growth Rate, Greenhouse 7-9 d post spray / Growth Rate, Greenhouse 0-2 d post spray / Growth Rate, Growth Chamber 10° C. 2-7 d post spray: foliar spray 1000 mg/l (113.7 g/acre); for Growth Rate, Greenhouse 7-9 d post spray: after chilling; for Growth Rate, Greenhouse 0-2 d post spray: before chilling; for Growth Rate, Growth Chamber 10° C. 2-7 d post spray: during chilling at 10° C.
Protocol: Corn seeds of a 111 day, central corn belt variety were planted in 2-quart pots filled with medium. After the corn grew for 10 days in the greenhouse at 24±3° C. (V2 to V3 growth stage), the plants received a foliar spray application of aqueous solutions of the test compounds containing 0.25% non-ionic surfactant with a volume equivalent to 30 gallons/acre. After spraying, plants were moved back to the greenhouse for 2 days, then moved to a growth chamber kept at 10° C. with a 16:8 light:dark cycle (cold treatment). After 5 days in the cold, plants were returned to the greenhouse for 2 days before being harvested destructively. Results of the studies comparing the growth rate of plants treated with S-ABA with 3′-methyl-(S)-ABA during the experiment are shown in Table 3. In additional studies, the effect of S-ABA and 3′-propargyl-(S)-ABA on corn growth rate in chilling studies was compared.

soybean plants = assay: Soybean drought tolerance (stomatal conductance)
Protocol: In this study, soybean plants were grown for 10 days under ambient lab temperature conditions and illumination of 150 umol m^2 s^−1 and a 16:8 photoperiod. At spraying, the primary leaves were fully expanded and the first trifoliate leaves were partially expanded. The plants were sprayed to dampness with solutions of water, S-ABA, 3′-methyl-(S)-abscisic acid, or 3′-propargyl-(S)-abscisic acid containing 0.025% (v/v) non-ionic surfactant. At times following spraying, the conductance of the primary leaves was measured using an AP4 porometer (Delta T Devices, Cambridge, UK) to evaluate the effect on stomatal conductance. A decrease in stomatal aperture, reflected in the conductance measures, is an immediate and direct effect of applied S-ABA. To simplify the data, the controls were always set to 100%. In Table 9, the effect of spray applications on the stomatal conductance was measured.

[2] = tested on: corn plants, commercial 111 day, central corn belt variety; assay: Corn stomatal conductance; conditions: for Average Stomatal Conductance (% of Control), 6 DAS: 6 days after spraying; for Average Stomatal Conductance (% of Control), 16 DAS: 16 days after spraying
Protocol: (§1) In this greenhouse experiment, foliar spray treatments containing 3′-methyl-(S)-abscisic acid, 3′-propargyl-(S)-abscisic acid or (S)-abscisic acid were applied to corn plants to evaluate their effect on gas exchange, as measured through stomatal conductance. Corn plants of a commercial, 111 day, central corn belt variety were grown in the greenhouse under optimal conditions for five weeks and were size-matched into ten groups of five plants. Using an aerosol sprayer, each group was sprayed to drip (25 milliliters per plant) with solutions containing a non-ionic surfactant (0.125%, v/v) and water (control), 2.5 mg, 7.5 mg or 25 mg/plant 3′-methyl-(S)-abscisic acid, or 2.5 mg, 7.5 mg or 25 mg/plant 3′-propargyl-(S)-abscisic acid, or 7.5 mg, 25 mg or 75 mg/plant (5)-ABA, respectively. After spraying, plants were returned to the greenhouse for the duration of the experiment. Stomatal conductance was measured using an AP4 porometer (Delta T Devices, Cambridge, UK) and the conductance for each plant was recorded at approximately the same time of day (˜10 AM) prior to treatment application as well as 1, 2, 5, 6, 9 and 16 days post-spraying.

[3] = tested on: corn plants, commercial 111 day, central corn belt variety; assay: Corn plant leaf rolling assay and shoot fresh weight under drought; conditions: for Shoot Fresh Weight, 15 DAS: 12 days drought then 3 days watering; for Average # of Rolled Leaves/Plant, 5 DAS / Average # of Rolled Leaves/Plant, 6 DAS / Average # of Rolled Leaves/Plant, 8 DAS: water withheld; for Average # of Rolled Leaves/Plant, 5 DAS: 5 days after spraying; for Average # of Rolled Leaves/Plant, 6 DAS: 6 days after spraying; for Average # of Rolled Leaves/Plant, 8 DAS: 8 days after spraying
Protocol: as §1, with “post-spraying. This study was conducted as described above with the following the exceptions. After spraying, plants were put back in the greenhouse and water was withheld for twelve days, simulating drought stress. The plants were then watered to saturation for three consecutive days before the plant shoots were cut at the soil surface and subsequently weighed in grams (fresh weight). Leaf-rolling data and fresh weight data were recorded for each plant following treatment application at the times specified below in Table 6.” for “post-spraying.”

[4] = foliar spray 300 mg/l, 0.3 mg/plant
[5] = foliar spray 1000 mg/l, 1.0 mg/plant
[6] = foliar spray 300 ppm or 7.5 mg/plant
[7] = foliar spray 1000 ppm or 25 mg/plant
[8] = foliar spray 3000 ppm or 75 mg/plant

CC1=CC(=O)CC(C)(C)[C@@]1(O)/C=C/C(C)=C/C(=O)O [S-ABA, (S)-abscisic acid]
Growth during stress recovery following cold ([1]; 3′-propargyl-(S)-ABA particularly between 11.4 and 113.7 g/acre, S-ABA at rates up to 1000 mg/liter (113.7 g/acre)): did not aid recovery growth | Maintenance of growth under cold (10° C.) conditions ([1]; S-ABA even at 1000 mg/l (113.7 g/acre)): did not maintain growth | Growth Rate, Greenhouse 7-9 d post spray ([1]; Table 3 study): 3.270 cm/day | Growth Rate, Greenhouse 0-2 d post spray ([1]; Table 3 study): 4.315 cm/day | Growth Rate, Growth Chamber 10° C. 2-7 d post spray ([1]; Table 3 study): 0.766 cm/day | Growth Rate, Greenhouse 7-9 d post spray ([1]; Table 4 study): 2.161 cm/day | Growth Rate, Greenhouse 0-2 d post spray ([1]; Table 4 study): 3.156 cm/day | Growth Rate, Growth Chamber 10° C. 2-7 d post spray ([1]; Table 4 study): 1.249 cm/day | Leaf area ([1]; in one of two studies, not repeatable across studies, 3′-methyl-(S)-abscisic acid at 30, 100 and 300 mg/liter): increased | Reduction in stomatal conductance at 1 day post spraying (soybean plants; 300 mg/l foliar spray): 58% | Time of 50% recovery of the control conductance (soybean plants; 300 mg/l foliar spray): ≤ 2 days | Time of greater than 50% recovery of the control conductance (soybean plants; 1000 mg/l foliar spray): 5 days | Percent Conductance (stomatal conductance, control = 100%), Day 1 (soybean plants; [4]): 42% | Percent Conductance (stomatal conductance, control = 100%), Day 2 (soybean plants; [4]): 56% | Percent Conductance (stomatal conductance, control = 100%), Day 5 (soybean plants; [4]): 80% | Percent Conductance (stomatal conductance, control = 100%), Day 6 (soybean plants; [4]): 108% | Percent Conductance (stomatal conductance, control = 100%), Day 7 (soybean plants; [4]): 122% | Percent Conductance (stomatal conductance, control = 100%), Day 1 (soybean plants; [5]): 27% | Percent Conductance (stomatal conductance, control = 100%), Day 2 (soybean plants; [5]): 32% | Percent Conductance (stomatal conductance, control = 100%), Day 5 (soybean plants; [5]): 58% | Percent Conductance (stomatal conductance, control = 100%), Day 6 (soybean plants; [5]): 80% | Percent Conductance (stomatal conductance, control = 100%), Day 7 (soybean plants; [5]): 118% | Average Stomatal Conductance (% of Control), 6 DAS [2, 6]: 88.5 % of Control | Average Stomatal Conductance (% of Control), 16 DAS [2, 6]: 89.3 % of Control | Average Stomatal Conductance (% of Control), 6 DAS [2, 7]: 83.7 % of Control | Average Stomatal Conductance (% of Control), 16 DAS [2, 7]: 88.0 % of Control | Average Stomatal Conductance (% of Control), 6 DAS [2, 8]: 61.3 % of Control | Average Stomatal Conductance (% of Control), 16 DAS [2, 8]: 62.5 % of Control | Shoot Fresh Weight, 15 DAS ([3]; 300 ppm or 7.5 mg/plant): 258.9 grams | Average # of Rolled Leaves/Plant, 5 DAS ([3]; 300 ppm or 7.5 mg/plant): 2.8 | Average # of Rolled Leaves/Plant, 6 DAS ([3]; 300 ppm or 7.5 mg/plant): 2.6 | Average # of Rolled Leaves/Plant, 8 DAS ([3]; 300 ppm or 7.5 mg/plant): 8.4 | Shoot Fresh Weight, 15 DAS ([3]; 1000 ppm or 25 mg/plant): 282.5 grams | Average # of Rolled Leaves/Plant, 5 DAS ([3]; 1000 ppm or 25 mg/plant): 1.2 | Average # of Rolled Leaves/Plant, 6 DAS ([3]; 1000 ppm or 25 mg/plant): 3.0 | Average # of Rolled Leaves/Plant, 8 DAS ([3]; 1000 ppm or 25 mg/plant): 8.8 | Shoot Fresh Weight, 15 DAS ([3]; 3000 ppm or 75 mg/plant): 301.7 grams | Average # of Rolled Leaves/Plant, 5 DAS ([3]; 3000 ppm or 75 mg/plant): 0.0 | Average # of Rolled Leaves/Plant, 6 DAS ([3]; 3000 ppm or 75 mg/plant): 0.2 | Average # of Rolled Leaves/Plant, 8 DAS ([3]; 3000 ppm or 75 mg/plant): 7.2 | Effectiveness at reducing leaf rolling ([3]; S-ABA 75 mg/plant compared with 25 mg of the derivatives): as effective at reducing leaf rolling as 25 mg of 3′-methyl-(S)-abscisic acid, or 3′-propargyl-(S)-abscisic acid
